A value given as a limit tells only on which side of the number the result lay.

The values that follow come from ChEMBL document CHEMBL1177872, “Inhibitors of the RET tyrosine kinase based on a 2-(alkylsulfanyl)-4-(3-thienyl)nicotinonitrile scaffold” (Eur J Med Chem, 2010).

Assay [1] concerns TPC1. Description: Antiproliferative activity against human TPC1 cells expressing RET/PCT1 after 72 hrs by [3H]thymidine incorporation assay.
Assay [2] has as its target Tyrosine-protein kinase ABL1 (Homo sapiens, UniProt P00519).
Description: Inhibition of human recombinant histidine-tagged ABL (230-517) expressed in Sf9 cells by ELISA
The nature of assay [3]: cells. To be noted: Homo sapiens, LS174T.
Description: Antiproliferative activity against human RET deficient LS 174T cells after 72 hrs by [3H]thymidine incorporation assay
In assay [4] the test system is ARO. The assay is described as follows: Antiproliferative activity against human RET deficient ARO cells after 72 hrs by [3H]thymidine incorporation assay.

Chain of Tyrosine-protein kinase ABL1 (P00519 whole entry): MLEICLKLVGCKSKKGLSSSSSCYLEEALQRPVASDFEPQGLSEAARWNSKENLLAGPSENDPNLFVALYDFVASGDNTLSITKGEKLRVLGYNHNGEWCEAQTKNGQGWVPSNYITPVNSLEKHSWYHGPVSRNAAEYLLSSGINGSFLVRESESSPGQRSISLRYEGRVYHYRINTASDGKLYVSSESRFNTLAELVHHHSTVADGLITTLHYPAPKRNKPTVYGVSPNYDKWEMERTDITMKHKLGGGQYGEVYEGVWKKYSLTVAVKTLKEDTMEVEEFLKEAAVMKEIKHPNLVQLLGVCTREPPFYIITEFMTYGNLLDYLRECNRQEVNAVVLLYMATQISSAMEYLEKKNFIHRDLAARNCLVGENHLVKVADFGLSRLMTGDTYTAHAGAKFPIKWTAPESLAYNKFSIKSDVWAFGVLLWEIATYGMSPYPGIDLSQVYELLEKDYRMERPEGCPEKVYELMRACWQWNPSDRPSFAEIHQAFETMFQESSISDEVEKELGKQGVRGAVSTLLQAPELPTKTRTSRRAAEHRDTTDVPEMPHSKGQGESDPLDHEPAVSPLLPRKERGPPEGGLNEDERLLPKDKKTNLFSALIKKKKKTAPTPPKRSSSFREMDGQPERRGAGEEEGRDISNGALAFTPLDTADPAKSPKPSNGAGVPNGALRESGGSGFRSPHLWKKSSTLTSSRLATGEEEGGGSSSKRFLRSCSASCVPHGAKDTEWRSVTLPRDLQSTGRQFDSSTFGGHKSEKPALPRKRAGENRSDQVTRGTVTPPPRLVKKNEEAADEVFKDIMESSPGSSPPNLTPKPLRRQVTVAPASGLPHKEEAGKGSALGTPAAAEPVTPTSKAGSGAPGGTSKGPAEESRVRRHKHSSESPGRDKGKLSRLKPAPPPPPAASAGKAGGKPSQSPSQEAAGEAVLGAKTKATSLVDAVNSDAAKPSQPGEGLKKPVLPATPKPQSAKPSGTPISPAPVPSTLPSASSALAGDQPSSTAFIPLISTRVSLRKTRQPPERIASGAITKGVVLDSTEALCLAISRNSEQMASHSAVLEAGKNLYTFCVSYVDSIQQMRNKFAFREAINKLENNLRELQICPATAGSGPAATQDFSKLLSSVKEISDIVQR

As for `N#Cc1c(SCC(=O)c2ccccc2)nc2c(c1-c1ccsc1)CCCC2`, the IC50 is > 300 µM in assay [1], > 150 µM in assay [2] and > 300 µM in assay [3].
As to `N#Cc1c(SCc2ccccc2)nc2c(c1-c1cccs1)CCCC2`, the IC50 in assay [1] was determined as 17 µM; in assay [4], 8.5 µM; in assay [2] it was 72 µM; in assay [3], 6.2 µM.
In the case of `N#Cc1c(N)nc(SCC(=O)c2ccccc2)c(C#N)c1-c1ccsc1`, the IC50 in assay [1] is > 300 µM; in assay [4] it was > 300 µM; in assay [2] it was 0.29 µM; in assay [3], > 300 µM.
As for `N#Cc1c(N)nc(SCC(=O)c2ccc(Cl)cc2)c(C#N)c1-c1ccsc1`, the IC50 in assay [1] worked out at 28 µM; in assay [4] it was 159 µM; in assay [2] it was 60 µM; in assay [3] it was 92 µM.
Consider `N#Cc1c(SCc2ccc(F)cc2)nc2c(c1-c1cccs1)CCCC2`, for which the IC50 in assay [1] was 101 µM; in assay [4] it was > 300 µM; in assay [2], 74 µM; in assay [3], > 300 µM.
The compound `COc1cc2/c(=N/c3ccc(Br)cc3F)nc[nH]c2cc1OCC1CCN(C)CC1` [VANDETANIB] registered an IC50 in assay [1] of 0.116 µM.

One may read the IC50 as the concentration that gives 50% inhibition. High values mean weaker potency in that assay, low ones greater potency in that assay.
